Assay results: patent publication US20120165319A1, “INHIBITORS OF INTERLEUKIN-1 BETA CONVERTING ENZYME” (VERTEX PHARMACEUTICALS INCORPORATED, priority 1995, published 2012)
“And” between values parts separate entries of the source, which are not always exact repeats. Equal values may be shown once. Read-outs that look alike come from different tables or passages of the source.

Legend:
[1] = tested on: IL-1β production, LPS-challenged mice; test: In vivo acute assay for efficacy as anti-inflammatory agent: LPS-induced IL-1β production in mice; design: species or system mouse; settings: for IP % Inhibition / POS Inhibition: % inhibition of IL-β production, LPS-challenged mice, 50 mg/kg (Table 3); for POS Inhibition / Inhibition of IL-1β Production, compound administered 0 hr relative to LPS challenge / Inhibition of IL-1β Production, compound administered +1 hr relative to LPS challenge / Inhibition of IL-1β Production, compound administered −1 hr relative to LPS challenge / Inhibition of IL-1β Production, compound administered −2 hr relative to LPS challenge: PO; for inhibition at 50 mg/kg: Mus musculus, po, compound PO, read-out: percent inhibition of IL-1β production; for inhibition at 50 mg/kg / Inhibition of IL-1β Production, compound administered 0 hr relative to LPS challenge / Inhibition of IL-1β Production, compound administered +1 hr relative to LPS challenge / Inhibition of IL-1β Production, compound administered −1 hr relative to LPS challenge / Inhibition of IL-1β Production, compound administered −2 hr relative to LPS challenge: LPS challenged mice, 50 mg/kg; for Inhibition of IL-1β Production, compound administered 0 hr relative to LPS challenge / Inhibition of IL-1β Production, compound administered +1 hr relative to LPS challenge / Inhibition of IL-1β Production, compound administered −1 hr relative to LPS challenge / Inhibition of IL-1β Production, compound administered −2 hr relative to LPS challenge: * = values obtained in subsequent assays (Table 4)
Outline: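 Serum IL-1β was measured by ELISA 7 h after an IP dose of 20 mg/kg LPS in CD1 mice, n=6 per group. Compounds in olive oil/DMSO/ethanol 90:5:5 were injected IP 1 h post-LPS (some analogs were dosed at challenge), and separate groups received 50 mg/kg by oral gavage.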

IL-1β, human whole blood = test: Whole blood assay for IL-1β production; type: cell-based; settings: read-out: Whole human blood IC50
Outline: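 IL-1β was quantified by ELISA in plasma diluted 1:200. The plasma came from EDTA-anticoagulated human whole blood incubated at 30 °C for 16-18 h with LPS (final 5.0 ng/ml) plus a saline serial dilution of compound. Controls were no-LPS, no-inhibitor and highest-vehicle.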

[2] = Homo sapiens, * = values obtained upon reassay
[3] = 0 h, administered 0 h relative to time of LPS challenge
[4] = 1 h, administered +1 h relative to time of LPS challenge
[5] = 2 h, administered −2 h relative to time of LPS challenge
[6] = * = values obtained upon reassay

Compound	IC50 (IL-1β, human whole blood; [2])	inhibition at 50 mg/kg [1, 3]	inhibition at 50 mg/kg [1, 5]	Inhibition of IL-1β Production, compound administered 0 hr relative to LPS challenge [1]	Inhibition of IL-1β Production, compound administered +1 hr relative to LPS challenge [1]	Inhibition of IL-1β Production, compound administered −1 hr relative to LPS challenge [1]	Inhibition of IL-1β Production, compound administered −2 hr relative to LPS challenge [1]	also measured
O=C[C@H](CC(=O)O)NC(=O)[C@@H]1CCCN2C(=O)CC[C@H](NC(=O)c3ccc(Cl)cc3)C(=O)N12 [Compound 416]	3400 nM	–	–	–	–	–	–	IP % Inhibition [1]: 39%; POS Inhibition [1]: 52%
O=C[C@H](CC(=O)O)NC(=O)[C@@H]1CCCN2C(=O)CC[C@H](NC(=O)c3ccc4nc[nH]c4c3)C(=O)N12 [Compound 434]	1800 nM	63%	0%	–	–	–	–	IP % Inhibition [1]: 74%; POS Inhibition [1]: 80%; inhibition at 50 mg/kg [1, 4]: 80%; IC50 (IL-1β, human whole blood; [6]): 1300 nM
O=C[C@H](CC(=O)O)NC(=O)[C@@H]1CCCN2C(=O)CC[C@H](NC(=O)c3cc4ccsc4s3)C(=O)N12 [Compound 442]	2000 nM	–	–	–	–	–	–	IP % Inhibition [1]: 0%; POS Inhibition [1]: 10%
CN(C)c1cccc(C(=O)N[C@H]2CCC(=O)N3CCC[C@@H](C(=O)N[C@H](C=O)CC(=O)O)N3C2=O)c1 [Compound 470]	360 nM	36%	0%	–	–	–	–	IC50 (IL-1β, human whole blood; [6]): 500 nM
CN(C)c1ccc(C(=O)N[C@H]2CCC(=O)N3CCC[C@@H](C(=O)N[C@H](C=O)CC(=O)O)N3C2=O)cc1 [Compound 471]	400 nM	34%	0%	–	–	–	–	–
CC(=O)N1C[C@H](NC(=O)c2cc(Cl)c(O)c(Cl)c2)C(=O)N(CC(=O)N[C@H](C=O)CC(=O)O)c2ccccc21 [Compound 656, (3S)-3-[(3S)-2-Oxo-3-(3,5-dichloro, 4-hydroxybenzoyl)amino-5-acetyl-2,3,4,5-tetrahydro-1H-1,5-benzodiazepine-1-acetylamino-]4-oxo-butyric acid]	–	16%	31%	–	–	–	–	IC50 (IL-1β, human whole blood; Homo sapiens, Table 17): 1600 nM
O=C[C@H](CC(=O)O)NC(=O)CN1C(=O)[C@@H](NC(=O)c2cc(Cl)c(O)c(Cl)c2)CN(C(=O)CO)c2ccccc21 [Compound 662, (3S)-3-[(3S)-2-Oxo-3-(3,5-dichloro-4-hydroxybenzoyl)amino-5-(2-hydroxy)acetyl-2,3,4,5-tetrahydro-1H-1,5-benzodiazepine-1-acetylamino]-4-oxo-butyric acid]	–	75%	41%	–	–	–	–	IC50 (IL-1β, human whole blood; Homo sapiens, Table 17): 800 nM
O=C[C@H](CC(=O)O)NC(=O)CN1C(=O)[C@@H](NC(=O)c2ccccc2)CN(C(=O)CO)c2ccccc21 [Compound 668, (3S)-3-[(3S)-2-Oxo-3-benzoylamino-5-(2-hydroxy)acetyl-2,3,4,5-tetrahydro-1H-1,5-benzodiazepine-1-acetylamino]-4-oxo-butyric acid]	–	–	–	–	–	–	–	inhibition at 50 mg/kg [1, 4]: 53%; IC50 (IL-1β, human whole blood; Homo sapiens, Table 17): 3700 nM
O=C1C[C@H](NC(=O)[C@@H]2CCCN3C(=O)CC[C@H](NC(=O)C(=O)c4ccccc4)C(=O)N23)C(OCc2ccccc2)O1 (stereo partly drawn) [Compound 2001, [1S,9S(2RS,3S)]9-Benzoylformylamino-6,10-dioxo-1,2,3,4,7,8,9,10-octahydro-N-(2(R,S)-benzyloxy-5-oxotetrahydrofuran-3-yl)-6H-pyridazino[1,2-a][1,2]-diazepine-1-carboxamide]	3500 nM	58%	64%	~57% and 58* %	~54% and 55* %	~62% and 62* %	~63% and 64* %	inhibition at 50 mg/kg [1, 4]: 55%; inhibition at 50 mg/kg ([1]; 1 h, administered −1 h relative to time of LPS challenge): 62%
CC(C)OC1OC(=O)C[C@@H]1NC(=O)[C@@H]1CCCN2C(=O)CC[C@H](NC(=O)c3ccccc3)C(=O)N12 (stereo partly drawn) [Compound 2100a, [1S,9S(2RS,3S)]9-Benzoylamino-6,10-dioxo-1,2,3,4,7,8,9,10-octahydro-N-(2-isopropoxy-5-oxo-tetrahydro-furan-3-yl)-6H-pyridazino-[1,2-a][1,2]diazepine-1-carboxamide]	850 nM	–	–	67%	58%	71%	8%	–
CCOC(=O)C[C@H](NC(=O)[C@@H]1CCCN2C(=O)CC[C@H](NC(=O)c3ccccc3)C(=O)N12)C(OCC)OCC [Compound 2100b]	> 20000 nM	–	–	47%	26%	0%	0%	–
COC(=O)C[C@H](NC(=O)[C@@H]1CCCN2C(=O)CC[C@H](NC(=O)c3ccccc3)C(=O)N12)C(OC)OC [Compound 2100c]	> 20000 nM	–	–	85%	40%	0%	0%	–
CC(C)OC(=O)C[C@H](NC(=O)[C@@H]1CCCN2C(=O)CC[C@H](NC(=O)c3ccccc3)C(=O)N12)C(OC(C)C)OC(C)C [Compound 2100d]	> 20000 nM	–	–	52%	26%	35%	42%	–
CCOC1OC(=O)C[C@@H]1NC(=O)[C@@H]1CCCN2C(=O)CC[C@H](NC(=O)c3ccccc3)C(=O)N12 (stereo partly drawn) [Compound 2100e, [1S,9S(2RS,3S)]9-Benzoylamino-6,10-dioxo-1,2,3,4,7,8,9,10-octahydro-N-(2-ethoxy-5-oxo-tetrahydro-furan-3-yl)-6H-pyridazino[1,2-a][1,2]-diazepine-1-carboxamide]	600 nM	–	–	94%	66%	54%	49%	–
